Results published in patent US20170014375A1, “PHARMACEUTICAL COMPOSITION COMPRISING EFFECTIVE DOSE OF POMIFERIN FOR TREATING CANCERS” (Macau University of Science and Technology, priority 2015, published 2017).

What was measured:
Bax-Bak DKO MEFs = test: Annexin V/PI flow cytometry cell death, Bax-Bak DKO MEFs; format: cell-based, mouse; conditions: 24 h
Method: Cell death is measured using an annexin V staining kit (BD Biosciences, San Jose, Calif., USA). Briefly, Bax-Bak wild-type and Bax-Bak DKO MEFs are treated with the 5 μM pomiferin for 24 h. Cells are then harvested and analysed by multiparametric flow cytometry using FITC-Annexin V and Propidium iodide staining (BD Biosciences, San Jose, Calif., USA) according to the manufacturer's instructions. Flow cytometry is then carried out using a FACSCalibur flow cytometer (BD Biosciences, San Jose, Calif., USA). Data acquisition and analysis is performed with CellQuest (BD Biosciences, San Jose, Calif., USA). Data are obtained from three independent experiments. Cell death is measured using an annexin V staining kit (BD Biosciences, San Jose, Calif., USA). Briefly, Bax-Bak DKO MEFs are treated with the 5 μM pomiferin in the presence or absence of 5 mM autophagic inhibitor 3-MA for 24 h. Cells are then harvested and analysed by multiparametric flow cytometry using FITC-Annexin V and Propidium iodide staining (BD Biosciences, San Jose, Calif., USA) according to the manufacturer's instructions. Flow cytometry is then carried out using a FACSCalibur flow cytometer (BD Biosciences, San Jose, Calif., USA). Data acquisition and analysis is performed with CellQuest (BD Biosciences, San Jose, Calif., USA). Data are obtained from three independent experiments.

[1] = system: A549 (human lung cancer) cells; test: MTT cytotoxicity assay, A549; format: cell-based; conditions: 72 h, 3 days, read-out: Means of IC50
Method: (§1) Pomiferin is dissolved in DMSO at a final concentration of 100 mmol/L and stored at −20° C. Cytotoxicity is assessed using the 3-(4,5-dimethylthiazol-2-yl)-2,5-diphenyltetrazolium bromide assay. 4000-8000 HeLa (human cervical cancer), MCF-7 (human breast cancer), HepG2 and Hep3B (human liver cancer), H1299 and A549 (human lung cancer), LNCap (human prostate cancer) and LLC-1 (mouse Lewis lung carcinoma) cells are seeded on 96-well plates per well. After overnight pre-incubation, the cells are exposed to different concentrations of pomiferin ([…]) for 3 days. Subsequently, 10 μL of MTT reagents is added to each well and incubated at 37° C. for 4 hours followed by the addition of 100 μL solubilization buffer (10% SDS in 0.01 mol/L HCl) and overnight incubation. Absorbance at 585 nm is determined from each well the next day. The percentage of cell viability is calculated using the following formula: Cell viability (%)=Cells number treated/Cells number DMSO control×100. Data are obtained from three independent experiments.

[2] = system: Bax-Bak double knock out (DKO) mouse embryonic fibroblasts; test: MTT cytotoxicity assay, Bax-Bak DKO MEFs; format: cell-based; conditions: Fibroblast, 72 h, 3 days, read-out: Means of IC50
Method: (§2) The test compound of pomiferin is dissolved in DMSO at a final concentration of 100 mmol/L and stored at −20° C. Cytotoxicity is assessed using the 3-(4,5-dimethylthiazol-2-yl)-2,5-diphenyltetrazolium bromide assay as previously described^29. 2500 of caspase wild-type (caspase WT), caspase-3 deficient (caspase 3KO), caspase-7 deficient (caspase 7KO), caspase-3/-7 deficient (caspase 3/7 DKO), caspase-8 deficient (caspase 8KO), Bax-Bak wild-type (Bak-Bak WT) and Bax-Bak double knock out (Bak-Bak DKO) mouse embryonic fibroblasts (MEFs) are seeded on 96-well plates per well. After overnight pre-incubation, the cells are exposed to different concentrations of pomiferin (namely 100, 50, 25, 12.5, 6.25, 3.125, 1.5625, 0.78, 0.39, 0.195, 0.079, 0.039 μmol/L) for 3 days. Subsequently, 10 μL of MTT reagents is added to each well and incubated at 37° C. for 4 hours, followed by the addition of 100 μL solubilization buffer (10% SDS in 0.01 mol/L HCl) and overnight incubation. Absorbance at 585 nm is determined from each well on the following day. The percentage of cell viability is calculated using the following formula: Cell viability (%)=Cells numbertreated/Cells numberDMSO control×100. Data is obtained from three independent experiments.

[3] = system: panel of human and mouse cancer cells; test: MTT cytotoxicity assay, panel of human and mouse cancer cells; format: cell-based; conditions: 72 hours, read-out: mean IC50 value range over the panel
Method: as §1

[4] = system: HCT-116 p53−/− isogenic colon cancer cells; test: MTT cytotoxicity assay, HCT116 p53−/−; format: cell-based; conditions: Homo sapiens, HCT-116, 72 h, HCT116 p53−/− (p53-deficient), 3 days, read-out: Means of IC50
Method: as §2, with “4000” for “2500”, “drug-resistant HCT-116 p53+/+, HCT-116 p53−/−” for “caspase wild-type (caspase WT), caspase-3 deficient (caspase 3KO), caspase-7 deficient (caspase 7KO), caspase-3/-7 deficient (caspase 3/7 DKO), caspase-8 deficient (caspase 8KO), Bax-Bak wild-type (Bak-Bak WT)”, “HCT-116 p53−/− isogenic colon cancer cells” for “Bax-Bak double knock out (Bak-Bak DKO) mouse embryonic fibroblasts (MEFs)”, “[…])” for “μmol/L)”

[5] = system: HeLa (human cervical cancer) cells; test: MTT cytotoxicity assay, HeLa; format: cell-based; conditions: 72 h, 3 days, read-out: Means of IC50
Method: as §1

[6] = system: LLC-1 (mouse Lewis lung carcinoma) cells; test: MTT cytotoxicity assay, LLC-1; format: cell-based; conditions: LLC1, 72 h, LLC-1 (Lung), 3 days, read-out: Means of IC50
Method: as §1

[7] = system: H1299 (human lung cancer) cells; test: MTT cytotoxicity assay, H1299; format: cell-based; conditions: NCI-H1299, 72 h, 3 days, read-out: Means of IC50
Method: as §1

CC(C)=CCc1c2c(c3occ(-c4ccc(O)c(O)c4)c(=O)c3c1O)C=CC(C)(C)O2 [pomiferin]
cell death (in words) (Bax-Bak DKO MEFs; 5 μM pomiferin alone, Bax-Bak DKO cells, FIG. 8B): significantly induced cell death | cell death (Bax-Bak DKO MEFs; 5 μM, annexin V flow cytometry, Bax-Bak DKO MEFs): ~80% | IC50 [1]: 20.3 µM | IC50 [2]: 0.986 µM | IC50 [3]: 3.82 to 20.3 µM | IC50 [4]: 6.12 µM | IC50 [5]: 7.36 µM | IC50 [6]: 3.82 µM | IC50 [7]: 16.3 µM
